{
  "source": "the NIST ThermoML archive (doi:10.1016/j.jct.2014.12.027)",
  "details": "101.33 kPa, Liquid, Vibrating tube method",
  "note": "± gives the expanded uncertainty stated by the source.",
  "data": [
    {"smiles": "CCCC[n+]1ccc(C)cc1.N#CC(=C=[N-])C#N", "note": "[1-butyl-4-methylpyridinium tricyanomethanide]", "values": [
      {"measurement": "mass density", "setting": "293.15 K", "value": "1037.3 ± 0.9", "unit": "kg/m3"},
      {"measurement": "mass density", "setting": "303.15 K", "value": "1031.7 ± 0.9", "unit": "kg/m3"},
      {"measurement": "mass density", "setting": "313.15 K", "value": "1026.2 ± 0.9", "unit": "kg/m3"},
      {"measurement": "mass density", "setting": "323.15 K", "value": "1020.7 ± 0.9", "unit": "kg/m3"},
      {"measurement": "mass density", "setting": "333.15 K", "value": "1015.1 ± 0.9", "unit": "kg/m3"},
      {"measurement": "mass density", "setting": "343.15 K", "value": "1009.6 ± 0.9", "unit": "kg/m3"}
    ]}
  ]
}
